# Results reported in patent publication US8815893B2, “Hetarylaminonaphthyridines” (Merck Patent GmbH, priority 2010, dated 2014).
# Target: T1, GST-ALK5 (Homo sapiens, UniProt P36897)
# T1 sequence (P36897 34-503): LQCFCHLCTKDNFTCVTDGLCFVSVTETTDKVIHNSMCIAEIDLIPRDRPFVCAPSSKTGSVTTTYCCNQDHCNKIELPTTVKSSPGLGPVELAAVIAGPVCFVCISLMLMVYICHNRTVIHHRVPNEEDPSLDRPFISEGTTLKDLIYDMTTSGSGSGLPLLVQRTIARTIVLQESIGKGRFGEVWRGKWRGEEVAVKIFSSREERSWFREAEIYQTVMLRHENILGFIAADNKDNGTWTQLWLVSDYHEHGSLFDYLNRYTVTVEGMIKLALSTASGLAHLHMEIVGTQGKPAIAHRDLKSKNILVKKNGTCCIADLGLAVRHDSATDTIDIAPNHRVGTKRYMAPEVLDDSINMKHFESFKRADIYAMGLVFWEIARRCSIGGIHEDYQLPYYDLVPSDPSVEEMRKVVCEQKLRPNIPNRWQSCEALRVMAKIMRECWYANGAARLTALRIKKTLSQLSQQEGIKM
# Assay: In-vitro (enzyme) kinase assay, 384-well flashplate (example 14)
# Assay type: biochemical
# Conditions: GST-ALK5, GST-SMAD2 substrate, 33P-ATP flashplate, 30° C. 45 min; IC50 classes; read-out: TβR activity (example 14)
# Protocol: In-Vitro (Enzyme) Assay for Determination of the Efficacy of Inhibitors of the Inhibition of TGF-Beta-Mediated Effects
# The kinase assay was carried out as 384-well flashplate assay. 31.2 nM of GST-ALK5, 439 nM of GST-SMAD2 and 3 mM of ATP (with 0.3 μCi of ^33P-ATP/well) were incubated in a total volume of 35 μl (20 mM of HEPES, 10 mM of MgCl2, 5 mM of MnCl2, 1 mM of DTT, 0.1% of BSA, pH 7.4) without or with test substance (5-10 concentrations) at 30° C. for 45 min. The reaction was stopped using 25 μl of 200 mM EDTA solution, filtered with suction at room temperature after 30 min, and the wells were washed with 3 times 100 μl of 0.9% NaCl solution. Radioactivity was measured in the TopCount. The IC50 values were calculated using RS1. Above and below, all temperatures were indicated in ° C.
row,SMILES,IC50 [nM]
1,Cn1cc(-c2cc(Nc3ccncc3)c3cccnc3n2)cn1 [compound 19],1000 to 10000
2,Fc1ccc(OC(F)(F)F)cc1-c1cc(Nc2ccncc2)c2cccnc2n1 [compound 38],< 100
3,CC(C)C(=O)Nc1cc(Nc2cc(-c3cc(Cl)ccc3F)nc3ncccc23)ccn1 [compound 70],< 100
4,Fc1ccccc1-c1cc(Nc2ccncc2)c2cccnc2n1 [compound 10],< 100
5,FC(F)(F)c1cccc(-c2cc(Nc3ccncc3)c3cccnc3n2)c1 [compound 12],< 100
6,Fc1ccc(Cl)cc1-c1cc(Nc2ccnc(Cl)c2)c2cccnc2n1 [compound 62],< 100
7,Fc1ccc(Cl)cc1-c1cc(Nc2ccnc(Nc3cc(-c4cc(Cl)ccc4F)nc4ncccc34)n2)c2cccnc2n1 [compound 39],1000 to 10000
8,O=C(O)c1cnccc1Nc1cc(-c2cc(Cl)ccc2F)nc2ncccc12 [compound 63],< 100
9,N#Cc1ccccc1-c1cc(Nc2ccncc2)c2cccnc2n1 [compound 61],100 to 1000
10,CNC(=O)c1cc(Nc2cc(-c3cc(Cl)ccc3F)nc3ncccc23)ccn1 [compound 53],< 100
11,Fc1ccc(Cl)cc1-c1cc(-n2ccc3cncnc32)c2cccnc2n1 [compound 54],< 100
12,Fc1ccc(C(F)(F)F)cc1-c1cc(-n2ccc3cnccc32)c2cccnc2n1 [compound 30],< 100
13,OCc1cnccc1Nc1cc(-c2cc(C(F)(F)F)ccc2F)nc2ncccc12 [compound 37],< 100
14,N#Cc1cncnc1Nc1cc(-c2cc(Cl)ccc2F)nc2ncccc12 [compound 41],< 100
15,Fc1ccc(-c2cc(Nc3ccncc3)c3cccnc3n2)cc1 [compound 06],< 100
16,Cn1ccc(-c2cc(Nc3ccncc3)c3cccnc3n2)n1 [compound 35],100 to 1000
17,COC(=O)c1cnccc1Nc1cc(-c2cc(Cl)ccc2F)nc2ncccc12 [compound 40],< 100
18,CN1CCN(c2cc(Nc3cc(-c4cc(Cl)ccc4F)nc4ncccc34)ccn2)CC1 [compound 08],1000 to 10000
19,c1cnc2nc(-c3cnccn3)cc(Nc3ccncc3)c2c1 [compound 24],1000 to 10000
20,c1ccc(-c2cc(Nc3ccncc3)c3cccnc3n2)nc1 [compound 25],< 100
21,Nc1cc(Nc2cc(-c3cc(C(F)(F)F)ccc3F)nc3ncccc23)ncn1 [compound 32],< 100
22,Fc1cc(F)c(-c2cc(Nc3ccncn3)c3cccnc3n2)cc1F [compound 50],< 100

row,SMILES,IC50 [nM]
1,COCCOc1cnccc1Nc1cc(-c2cc(C(F)(F)F)ccc2F)nc2ncccc12 [compound 26],< 100
2,Cc1cccc(-c2cc(Nc3cc(N)ncn3)c3cccnc3n2)n1 [compound 55],< 100
3,CCN(CCOc1cnccc1Nc1cc(-c2cc(Cl)ccc2F)nc2ncccc12)C(=O)OC(C)(C)C [compound 45],100 to 1000
4,Cc1nn(-c2cc(-c3cc(Cl)ccc3F)nc3ncccc23)c2ccncc12 [compound 71],< 100
5,N#Cc1cnccc1Nc1cc(-c2cc(Cl)ccc2F)nc2ncccc12 [compound 65],< 100
6,Fc1ccc(C(F)(F)F)cc1-c1cc(Nc2ncncn2)c2cccnc2n1 [compound 44],< 100
7,CN(C)CCOc1cnccc1Nc1cc(-c2cc(Cl)ccc2F)nc2ncccc12 [compound 23],< 100
8,COC(=O)c1cc(Nc2cc(-c3cc(Cl)ccc3F)nc3ncccc23)ccn1 [compound 48],< 100
9,Fc1ccc(Cl)cc1-c1cc(Nc2ccncc2)c2cccnc2n1 [compound 01],< 100
10,Nc1cc(Nc2cc(-c3cc(Cl)ccc3F)nc3ncccc23)ncn1 [compound 02],< 100
11,O=C(O)c1cc(Nc2cc(-c3cc(Cl)ccc3F)nc3ncccc23)ccn1 [compound 68],1000 to 10000
12,Cc1cccc(-c2cc(-n3ccc4cncnc43)c3cccnc3n2)n1 [compound 59],100 to 1000
13,CN(C)CCCOc1cnccc1Nc1cc(-c2cc(Cl)ccc2F)nc2ncccc12 [compound 33],< 100
14,Fc1ccc(C(F)(F)F)cc1-c1cc(Nc2ccncc2)c2cccnc2n1 [compound 16],< 100
15,Cc1cccc(-c2cc(-n3ccc4cnccc43)c3cccnc3n2)n1 [compound 57],< 100
16,Fc1ccc(Cl)cc1-c1cc(-n2ccc3cnccc32)c2cccnc2n1 [compound 14],< 100
17,Cc1ccn(-c2cc(Nc3ccncc3)c3cccnc3n2)n1 [compound 28],< 100
18,Cc1cccc(-c2cc(Nc3ccncc3)c3cccnc3n2)n1 [compound 03],< 100
19,CC(=O)Nc1cc(Nc2cc(-c3cc(Cl)ccc3F)nc3ncccc23)ccn1 [compound 67],< 100
20,OCc1cnccc1Nc1cc(-c2cc(Cl)ccc2F)nc2ncccc12 [compound 20],< 100
21,Fc1ccc(Cl)cc1-c1cc(Nc2ncncn2)c2cccnc2n1 [compound 18],< 100
22,Nc1nccc(Nc2cc(-c3cc(Cl)ccc3F)nc3ncccc23)n1 [compound 52],< 100

row,SMILES,IC50 [nM]
1,Fc1ccccc1-c1cc(Nc2ccncn2)c2cccnc2n1 [compound 17],< 100
2,CN1CCN(c2ccc(Nc3cc(Nc4cc(-c5cc(Cl)ccc5F)nc5ncccc45)ccn3)cc2)CC1 [compound 27],100 to 1000
3,CNC(=O)c1cnccc1Nc1cc(-c2cc(Cl)ccc2F)nc2ncccc12 [compound 42],< 100
4,Fc1ccc(Cl)cc1-c1cc(Nc2ccncc2OCCCN2CCOCC2)c2cccnc2n1 [compound 34],< 100
5,CC(C)(C)OC(=O)Nc1nccc(Nc2cc(-c3cc(Cl)ccc3F)nc3ncccc23)n1 [compound 51],< 100
6,Nc1cnccc1Nc1cc(-c2cc(Cl)ccc2F)nc2ncccc12 [compound 22],< 100
7,Fc1ccc(Cl)cc1-c1cc(Sc2ccncc2)c2cccnc2n1 [compound 58],< 100
8,Fc1ccc(C(F)(F)F)cc1-c1cc(Nc2ccncn2)c2cccnc2n1 [compound 21],< 100
9,COCCOc1cnccc1Nc1cc(-c2cc(Cl)ccc2F)nc2ncccc12 [compound 15],< 100
10,Fc1ccc(Cl)cc1-c1cc(Oc2ccncc2)c2cccnc2n1 [compound 56],> 10000
11,Fc1cc(F)c(-c2cc(Nc3ccncc3)c3cccnc3n2)cc1F [compound 43],< 100
12,Cn1nccc1-c1cc(Nc2ccncc2)c2cccnc2n1 [compound 36],1000 to 10000
13,Fc1ccc(Cl)cc1-c1cc(Nc2ccncc2OCCN2CCOCC2)c2cccnc2n1 [compound 04],100 to 1000
14,CCOc1cc(Nc2cc(-c3cc(Cl)ccc3F)nc3ncccc23)ccn1 [compound 07],100 to 1000
15,c1cnc2nc(-c3cn[nH]c3)cc(Nc3ccncc3)c2c1 [compound 31],100 to 1000
16,CCNCCOc1cnccc1Nc1cc(-c2cc(Cl)ccc2F)nc2ncccc12 [compound 46],100 to 1000
17,Cc1cccc(-c2cc(Nc3ccncn3)c3cccnc3n2)n1 [compound 49],< 100
18,Clc1cccc(-c2cc(Nc3ccncc3)c3cccnc3n2)c1 [compound 11],< 100
19,Fc1ccc(Cl)cc1-c1cc(Nc2ccncn2)c2cccnc2n1 [compound 05],< 100
20,CCNC(=O)c1cnccc1Nc1cc(-c2cccc(C)n2)nc2ncccc12 [compound 60],< 100
21,O=c1[nH]c2cnccc2n1-c1cc(-c2cc(Cl)ccc2F)nc2ncccc12 [compound 29],< 100
22,OCCOc1cnccc1Nc1cc(-c2cc(Cl)ccc2F)nc2ncccc12 [compound 09],< 100
